Data: patent US20230158151A1 (NURIX THERAPEUTICS, INC., priority 2021, published 2023)

What was measured:
[1] = target: T1, ITK (Homo sapiens, UniProt Q08881); experiment: ITK Degradation HiBiT Assay; assay type: cell-based; settings: C-terminal HiBiT-tagged Molt4 cells, 4 hrs incubation; for Dmax: MOLT-4, read-out: HiBiT DMax (%)
T1 construct: Compounds provided herein were assayed in vitro with ITK HiBit cell lines; endogenous in cells; host or cells: Molt4 (ATCC CRL-1552 [sic]), monoclonal clone 1C10
T1 sequence (Q08881 1-620): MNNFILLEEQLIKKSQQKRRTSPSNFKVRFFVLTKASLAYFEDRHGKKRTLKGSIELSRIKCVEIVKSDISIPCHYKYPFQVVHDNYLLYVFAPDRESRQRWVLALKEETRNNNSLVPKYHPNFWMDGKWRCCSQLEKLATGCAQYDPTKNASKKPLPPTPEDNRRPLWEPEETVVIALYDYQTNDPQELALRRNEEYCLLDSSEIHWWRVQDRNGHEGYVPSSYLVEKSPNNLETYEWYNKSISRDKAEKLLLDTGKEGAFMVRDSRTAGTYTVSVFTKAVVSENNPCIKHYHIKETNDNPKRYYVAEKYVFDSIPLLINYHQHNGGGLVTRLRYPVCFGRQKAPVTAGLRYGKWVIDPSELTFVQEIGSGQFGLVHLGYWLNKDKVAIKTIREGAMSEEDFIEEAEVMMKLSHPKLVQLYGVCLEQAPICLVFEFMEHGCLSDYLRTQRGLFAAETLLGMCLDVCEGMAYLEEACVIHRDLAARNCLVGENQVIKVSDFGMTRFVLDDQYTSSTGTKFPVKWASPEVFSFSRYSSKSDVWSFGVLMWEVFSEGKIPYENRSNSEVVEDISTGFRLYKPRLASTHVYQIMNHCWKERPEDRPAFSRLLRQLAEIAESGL

[2] = Mouse PK Analysis (plasma LC/MS/MS, noncompartmental PK parameters); assay type: in vivo; set-up: AUC(0-t): concentration or dose not given beside the values; settings: mouse; mice, oral administration, plasma
Experimental: Compounds 30 and 29 were administered to mice orally. After 6 hours or 24 hours, splenocytes cells were harvested. ITK was evaluated by Western blotting. Plasma concentrations were determined by LC/MS/MS. Plasma samples were protein precipitated by addition of 100 μl of acetonitrile containing 50 ng/ml of internal standard. The resulting mixture was vortexed and centrifuged at 4000 RPM for 5 minutes. An aliquot of the resultant supernatant (75 μl) was added to 75 μl of 0.1% formic acid in water to constitute the final sample for injection. Samples were injected on a Shimadzu Exion LC Binary Gradient AD Pump HLPC system connected to a Sciex QTRAP 6500+ mass spectrometer. Five μl of sample was injected onto a Waters Acquity UPLC BEH C18 column 130A (2.1×30 mm, […]) at 40° C. utilizing a flow rate of 700 μl/minute. Mobile Phase A was 0.1% formic acid in water and mobile phase B was 0.1% formic acid in acetonitrile. A linear gradient of 15-95% B over 1.0 minute was used. The mass spectrometer was operated in positive ion electrospray mode with multiple reaction monitoring for maximum sensitivity. Sciex Analyst software (version 1.6.3) was used for LC/MS/MS instrument control and acquisition. Compound concentration was determined against a standard curve of internal standard versus compound peak area ratio. Noncompartmental PK parameters were determined using Phoenix 32 software (version 8.2.0.4383) from Certara. Plasma concentrations from the LC/MS/MS analyses, dose, route of administration, and desired units were utilized for PK parameter calculations. […] FIG. 3C provides the concentration over time of compound 30 following in vivo oral administration in the 6 hour and 24 hour assays.
Cmax, Tmax and AUClast were all calculated using a WinNonLin Phoenix 64 v 8.2.0.4383. Using non-compartmental analysis, Tmax, Cmax and AUClast were determined as follows:
Tmax—Time of maximum observed concentration. Cmax—Maximum observed concentration, occurring at time Tmax, as defined above. AUClast—Area under the curve from the time of dosing to the time of the last measurable (positive) concentration (Tlast).

| Dmax [1] | AUC(0-t) [2] | Cmax [2] | Tmax [2] | DC50 [1] | SMILES |
| --- | --- | --- | --- | --- | --- |
| 91% | 1.56 µM·h | 0.379 µM | 6 h | – | C[C@@]12Cc3[nH]nc(-c4cc5ccc(N6CCC7(CCN(CC8CCN(c9ccc(C%10CCC(=O)NC%10=O)cn9)CC8)CC7)C6=O)cc5[nH]4)c3C[C@@H]1C2(F)F (stereo partly drawn) [Compound 28, 3-(6-(4-((2-(2-((4aS,5aR)-5,5-difluoro-5a-methyl-1,4,4a,5,5a,6-hexahydrocyclopropa[f]indazol-3-yl)-1H-indol-6-yl)-1-oxo-2,8-diazaspiro[4.5]decan-8-yl)methyl)piperidin-1-yl)pyridin-3-yl)piperidine-2,6-dione] |
| 74% | 150 µM·h | 11 µM | 3.3 h | 1.5 nM | CC1(C)CCc2c(-c3cc4ccc(C(=O)N5CCN(CC6CCN(c7ccc(C8CCC(=O)NC8=O)cc7)CC6)CC5)cc4[nH]3)n[nH]c2C1 (stereo not shown) [Compound 38, 3-(4-(4-((4-(2-(6,6-dimethyl-4,5,6,7-tetrahydro-1H-indazol-3-yl)-1H-indole-6-carbonyl)piperazin-1-yl)methyl)piperidin-1-yl)phenyl)piperidine-2,6-dione] |
| 87% | 36.5 µM·h | 7.11 µM | 6 h | – | CC1(C)CCc2c(-c3cc4ccc(C(=O)N5CCN(CC6CCN(c7ccc(C8CCC(=O)NC8=O)cn7)CC6)CC5)cc4[nH]3)n[nH]c2C1 (stereo not shown) [Compound 26, 3-(6-(4-((4-(2-(6,6-dimethyl-4,5,6,7-tetrahydro-1H-indazol-3-yl)-1H-indole-6-carbonyl)piperazin-1-yl)methyl)piperidin-1-yl)pyridin-3-yl)piperidine-2,6-dione] |
